Assay: clinical
Parameters: species or system patients (human)
Conditions: human, in vivo, iv, 5 mg/kg, Serum half-life
Method: The in vivo release of theophylline from this composition was tested in six patients, 3 males and 3 females, aged 18-42 years (mean age 30 years), weighing from 63 to 85 kg (mean weight 66 kg), all of whom were diagnosed as having bronchial asthma.
The first dose was given to the patients before breakfast (i.e. in the fasting state) as two units of the composition (340 mg theophylline) together with 100 ml of liquid. […] Following the oral dose, venous blood samples were drawn at 0, 1, 2, 3, 4, 6, 8, 10, 12, 14, 16 and 24 hours. Serum samples were drawn at 0, 15 min., 30 min., 60 min., 90 min., and 2, 3, 5, 7, 9 and 11 hours after the i.v. dose. The serum portion of the blood specimen was immediately frozen at -20° C. and kept frozen until analyzed 2 weeks later. The amount of theophylline in the serum was assayed by HPLC with an accuracy of ±5%.

Cn1c(=O)c2[nH]cnc2n(C)c1=O [theophylline]
half-life: 6 h

— patent publication US5618560A, “Controlled release erodible composition” (BM Research A/S, priority 1988, dated 1997)
